Source: patent US8633245B2, “PAI-1 inhibitor” (Institute of Medicinal Molecular Design, Inc., priority 2008, dated 2014)

Legend:
recombinant human PAI-1 [1] = biological target: T1, recombinant human PAI-1 (Homo sapiens, UniProt P05121); assay: Test Example 1: human PAI-1 inhibitory activity (tPA fluorogenic substrate, pH 7.5 Tris buffer); assay type: biochemical; conditions: for Inhibition Rate of PAI-1 Activity (%): Tris buffer; for inhibition at 25 µM: read-out: Inhibition Rate of PAI-1 Activity (%)
T1 construct: purchased Molecular Innovations, Inc
Experimental: 50 mM Tris, 150 mM NaCl, 10 μg/ml BSA, 0.01% Tween80 (SIGMA-ALDRICH Corporation)

recombinant human PAI-1 [2] = biological target: T1, recombinant human PAI-1; assay: Test Example 2: human PAI-1 inhibitory activity (tPA fluorogenic substrate, pH 7.4 HEPES buffer); assay type: biochemical; conditions: for Inhibition Rate of PAI-1 Activity (%): HEPES buffer; for IC50: human PAI-1, calculated from the inhibition rates; for inhibition at 3 µM: read-out: Inhibition Rate of PAI-1 Activity (%)
Experimental: 0.1 M HEPES, 0.1 M NaCl. 1 mM EDTA. 0.1% Polyethylene glycol 8,000 (Hampton Research Corporation),
2 mM Dimethyldecylphoshine oxide [Apo-10] (Fluka Corporation)

recombinant rat PAI-1 = biological target: T2, recombinant rat PAI-1 (Rattus norvegicus, UniProt P20961); assay: Test Example 3: rat PAI-1 inhibitory activity (as Test Example 2 with rat PAI-1); assay type: biochemical; conditions: for Inhibition Rate of PAI-1 Activity (%) / IC50: rat PAI-1; for IC50: calculated from the inhibition rates; for inhibition at 10 µM: read-out: Inhibition Rate of PAI-1 Activity (%)
T2 construct: purchased Molecular Innovations, Inc
T2 sequence (P20961 24-402): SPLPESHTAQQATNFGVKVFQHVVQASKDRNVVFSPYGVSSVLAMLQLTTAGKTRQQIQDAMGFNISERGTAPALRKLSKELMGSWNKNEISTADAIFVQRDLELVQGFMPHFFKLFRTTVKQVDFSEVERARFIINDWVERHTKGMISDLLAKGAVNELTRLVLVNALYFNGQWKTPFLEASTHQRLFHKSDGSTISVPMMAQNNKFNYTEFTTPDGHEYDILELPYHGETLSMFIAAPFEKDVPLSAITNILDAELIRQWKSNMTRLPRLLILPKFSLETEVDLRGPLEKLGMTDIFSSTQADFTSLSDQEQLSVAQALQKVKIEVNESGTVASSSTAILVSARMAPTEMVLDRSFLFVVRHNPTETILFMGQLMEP
Experimental: To this solution, 6 μl of 80 nM recombinant human PAI-1 (Molecular Innovations, Inc.) solution prepared with Tris buffer was added, and the plate was incubated for 5 minutes at room temperature. Furthermore, 30 μl of 800 IU/ml two-chain tPA (Activity Standard; American diagnostica, inc.) prepared with Tris buffer was added, and the mixed solution was incubated for 15 minutes at room temperature. Then, 30 μl of 400 μM fluorogenic substrate (Pyr-Gly-Arg-MCA; Peptide Institute, Inc.) for tPA prepared with Tris buffer was added and reacted for 30 minutes at room temperature.

recombinant human PAI-1 [3] = biological target: T1, recombinant human PAI-1; assay: Test Example 4: human PAI-1 inhibitory activity (amount of PAI-1 bound to plate-coated tPA, ELISA); assay type: binding; conditions: read-out: Inhibition Rate of PAI-1 Activity (%)
Experimental: 100 μl of tPA solution, where one-chain recombinant tPA (hereinafter referred to as tPA; American diagnostica, inc.) had been diluted with Buffer A to achieve a concentration of 10 μg/ml, was added to each well of a 96-well plate (Nunc Maxisorp), and the plate was incubated for one night at 4° C. to be coated with tPA. Then, after suction of tPA solution from the 96-well plate, the plate was rinsed successively with Buffer A and Buffer B.
To Buffer B, solutions of the compound according to the present invention dissolved with DMSO (final DMSO concentration: 0.2%) and recombinant human PAI-1 (Molecular Innovations, Inc.) were added. The mixtures were blended so that the final concentrations would be 0.1 to 3.0 μM and 50 ng/ml respectively, and were incubated for 15 minutes on ice. These mixed solutions were added to the rinsed 96-well plate at 100 μl/well, and incubated for 60 minutes at room temperature. To prepare a calibration curve, PAI-1 solutions without the compound according to the present invention (solutions where the final concentrations being 100, 50, 25, 12.5, 6.25, 3.13, or 1.56 ng/ml PAI-1) were added at 100 μl/well, and the plate was incubated for 60 minutes at room temperature, as standard.
After incubation, the reaction mixture was removed by suction, and each well was rinsed with Wash Buffer. Next, anti-human PAI-1 monoclonal antibody (PROGEN Inc.) diluted with Buffer C to be 3.0 μg/ml was added to the 96-well plate at 100 μl/well, and the plate was incubated for 1 hour at room temperature. After rinsing each well with Wash Buffer, alkaline phosphatase-labeled goat anti-mouse IgG (H+L) (Jackson ImmunoResearch, Inc.) diluted with Buffer D to be 0.12 μg/ml was added at 100 μl/well, and the plate was incubated for 1 hour at room temperature. After rinsing each well with Wash Buffer, 1.0 mg/ml p-Nitrophenyl Phosphate (SIGMA) was added to the 96-well plate at 100 μl/well to start the reaction. After 30 to 60 minutes, 25 μl of 0.5 N NaOH was added to stop the reaction, and the absorbance was measured at 405 nm using a multiplate reader (GENios; TECAN G.M.B.H.). Based on the calibration curve prepared from the standard wells, amounts of PAI-1 bound to tPA in the wells that had been treated with the compound according to the present invention were calculated, and the PAI-1 inhibition rates by the compounds according to the present invention were obtained by the following equation. [PAI-1 Inhibition Rate (%)]=[1−(amount of PAI-1 bound to tPA on the well by treatment with the compound according to the present invention)/(amount of PAI-1 bound to tPA on the well by treatment with PAI-1 solution not including the compound according to the present invention (solution having the final concentration of 50 ng/ml PAI-1)]×100

T1 sequence (P05121 24-402): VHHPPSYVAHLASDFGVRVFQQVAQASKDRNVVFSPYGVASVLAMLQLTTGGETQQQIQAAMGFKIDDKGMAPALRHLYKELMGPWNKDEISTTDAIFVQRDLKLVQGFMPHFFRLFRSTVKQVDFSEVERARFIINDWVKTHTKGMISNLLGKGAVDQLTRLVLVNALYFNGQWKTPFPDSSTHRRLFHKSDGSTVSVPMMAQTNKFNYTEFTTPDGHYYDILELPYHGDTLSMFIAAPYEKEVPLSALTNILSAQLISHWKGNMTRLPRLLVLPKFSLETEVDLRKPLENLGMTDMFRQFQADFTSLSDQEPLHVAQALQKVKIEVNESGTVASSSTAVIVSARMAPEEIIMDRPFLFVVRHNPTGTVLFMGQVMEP

Row | Inhibition Rate of PAI-1 Activity (%) (recombinant human PAI-1 [1]; Compound Concentration 5 μM) | Inhibition Rate of PAI-1 Activity (%) (recombinant human PAI-1 [1]; Compound Concentration 10 μM) | Inhibition Rate of PAI-1 Activity (%) (recombinant human PAI-1 [2]; Compound Concentration 0.1 μM) | Inhibition Rate of PAI-1 Activity (%) (recombinant human PAI-1 [2]; Compound Concentration 0.3 μM) | Inhibition Rate of PAI-1 Activity (%) (recombinant human PAI-1 [2]; Compound Concentration 1 μM) | Inhibition Rate of PAI-1 Activity (%) (recombinant human PAI-1 [2]; Compound Concentration 3 μM) | Inhibition Rate of PAI-1 Activity (%) (recombinant rat PAI-1; compound concentration 0.3 μM) | Inhibition Rate of PAI-1 Activity (%) (recombinant rat PAI-1; compound concentration 1 μM) | Inhibition Rate of PAI-1 Activity (%) (recombinant rat PAI-1; compound concentration 3 μM) | Inhibition Rate of PAI-1 Activity (%) (recombinant rat PAI-1; compound concentration 10 μM) | SMILES | IC50 (recombinant human PAI-1 [2]) [nM] | IC50 (recombinant rat PAI-1) [nM] | also measured
1 | 29 | 70 | 0 | 5 | 25 | 92 | 0 | 5 | 47 | 89 | CCCCc1ccc(COc2ccc(-c3ccc(OC(F)(F)F)cc3)cc2CCC(=O)O)cc1 [Compound 30] | – | – | Inhibition Rate of PAI-1 Activity (%) (recombinant human PAI-1 [1]; Compound Concentration 25 μM): >99%
2 | – | – | – | – | – | – | – | – | – | – | CC(C)c1ccc(Oc2ccc(CCC(=O)O)c(Oc3ccc(C(C)C)cc3)c2)cc1 [Compound 73] | 1270 | 2100 | inhibition at 25 µM (recombinant human PAI-1 [1]): > 99%
3 | – | – | – | – | – | – | – | – | – | – | O=C(O)CCc1cc(-c2ccc(OC(F)(F)F)cc2)ccc1OCCCCc1ccccc1 [Compound 102] | 1320 | 2750 | inhibition at 1 µM (recombinant human PAI-1 [3]): 0%
4 | – | – | – | – | – | – | – | – | – | – | CC(C)(C)c1ccc(COc2ccc(-c3ccc(OC(F)(F)F)cc3)cc2OCC(=O)O)cc1 [Compound 105] | 1070 | 2190 | inhibition at 25 µM (recombinant human PAI-1 [1]): > 99%
5 | – | – | – | – | – | – | – | – | – | – | CC(C)(C)c1ccc(COc2c(OCC(=O)O)cccc2-c2ccc(OC(F)(F)F)cc2)cc1 [Compound 117] | 1040 | 2480 | inhibition at 3 µM (recombinant human PAI-1 [2]): > 99%
6 | – | – | – | – | – | – | – | – | – | – | CC(C)(Oc1cccc(-c2ccc(OC(F)(F)F)cc2)c1OCc1ccc(C(C)(C)C)cc1)C(=O)O [Compound 118] | 1010 | 1920 | inhibition at 3 µM (recombinant human PAI-1 [2]): > 99%
7 | – | – | – | – | – | – | – | – | – | – | CCN(CC)c1ccc(N(Cc2ccc(C(C)(C)C)cc2)C(=O)C(=O)O)c(-c2ccc(OC(F)(F)F)cc2)c1 [Compound 208] | – | – | inhibition at 1 µM (recombinant human PAI-1 [3]): 13%
8 | 87 | 96 | 9 | 16 | 43 | 96 | 4 | 17 | 78 | 87 | CC(C)Oc1ccc(N(Cc2ccc(C(C)(C)C)cc2)C(=O)C(=O)O)cc1-c1ccc(OC(F)(F)F)cc1 [Compound 211] | – | – | –
9 | 78 | 95 | 5 | 15 | 64 | 98 | 8 | 40 | 73 | 67 | CC(C)(C)c1ccc(CN(C(=O)C(=O)O)c2ccc(OCc3ccccc3)c(-c3ccc(OC(F)(F)F)cc3)c2)cc1 [Compound 212] | – | – | –
10 | 93 | 84 | 0 | 10 | 48 | 98 | 8 | 26 | 90 | 78 | CCN(CC)c1ccc(N(Cc2ccc(C(C)(C)C)cc2)C(=O)C(=O)O)cc1-c1ccc(OC(F)(F)F)cc1 [Compound 213] | – | – | –
11 | 87 | 93 | 4 | 2 | 40 | 96 | 0 | 8 | 77 | 97 | CN(C)c1ccc(N(Cc2ccc(C(C)(C)C)cc2)C(=O)C(=O)O)cc1-c1ccc(OC(F)(F)F)cc1 [Compound 214] | – | – | –
12 | 90 | 92 | 7 | 18 | 54 | 95 | 2 | 16 | 84 | 97 | Cc1cc(N(C)C)c(-c2ccc(OC(F)(F)F)cc2)cc1N(Cc1ccc(C(C)(C)C)cc1)C(=O)C(=O)O [Compound 215] | – | – | –
13 | – | – | – | – | – | – | – | – | – | – | CCCCC(c1ccc(C(C)(C)C)cc1)N(C(=O)C(=O)O)c1ccc(-c2ccc(OC(F)(F)F)cc2)cc1 (centres unmarked) [Compound 221] | 930 | 1270 | inhibition at 3 µM (recombinant human PAI-1 [2]): > 99%
14 | – | – | – | – | – | – | – | – | – | – | CC(C)(C)c1ccc(C(c2ccccc2)N(C(=O)C(=O)O)c2ccc(-c3ccc(OC(F)(F)F)cc3)cc2)cc1 (centres unmarked) [Compound 222] | 1060 | 1340 | inhibition at 3 µM (recombinant human PAI-1 [2]): > 99%
15 | – | – | – | – | – | – | – | – | – | – | CCCCCOc1ccc(-c2ccc(OC(F)(F)F)cc2)cc1N(CCCCc1ccccc1)C(=O)C(=O)O [Compound 226] | 510 | 1000 | inhibition at 10 µM (recombinant rat PAI-1): > 99%
16 | – | – | – | – | – | – | – | – | – | – | CCCCOc1ccc(N(CCCCc2ccccc2)C(=O)C(=O)O)cc1-c1ccc(OC(F)(F)F)cc1 [Compound 227] | 1110 | 1950 | –
17 | – | – | – | – | – | – | – | – | – | – | CCC(CC)Oc1ccc(N(CCCc2ccccc2)C(=O)C(=O)O)cc1-c1ccc(OC(F)(F)F)cc1 [Compound 230] | 1320 | 1830 | –
18 | – | – | – | – | – | – | – | – | – | – | CCCCOc1ccc(-c2ccc(OC(F)(F)F)cc2)cc1N(CCCCc1ccccc1)C(=O)C(=O)O [Compound 231] | 1190 | 1570 | inhibition at 10 µM (recombinant rat PAI-1): > 99%
19 | – | – | – | – | – | – | – | – | – | – | CCN(CC)c1ccc(N(CCCc2ccccc2)C(=O)C(=O)O)c(-c2ccc(OC(F)(F)F)cc2)c1 [Compound 238] | 1570 | 3140 | –
